Laboratory results: ChEMBL document CHEMBL1128697, “Synthesis of isoornithines and methylputrescines. An evaluation of their inhibitory effects on ornithine decarboxylase” (J Med Chem, 1995)

target: T1, Ornithine decarboxylase (Rattus norvegicus, UniProt P09057); test: Inhibition of liver Ornithine decarboxylase in thioacetamide-treated rat
T1 sequence (P09057 whole entry): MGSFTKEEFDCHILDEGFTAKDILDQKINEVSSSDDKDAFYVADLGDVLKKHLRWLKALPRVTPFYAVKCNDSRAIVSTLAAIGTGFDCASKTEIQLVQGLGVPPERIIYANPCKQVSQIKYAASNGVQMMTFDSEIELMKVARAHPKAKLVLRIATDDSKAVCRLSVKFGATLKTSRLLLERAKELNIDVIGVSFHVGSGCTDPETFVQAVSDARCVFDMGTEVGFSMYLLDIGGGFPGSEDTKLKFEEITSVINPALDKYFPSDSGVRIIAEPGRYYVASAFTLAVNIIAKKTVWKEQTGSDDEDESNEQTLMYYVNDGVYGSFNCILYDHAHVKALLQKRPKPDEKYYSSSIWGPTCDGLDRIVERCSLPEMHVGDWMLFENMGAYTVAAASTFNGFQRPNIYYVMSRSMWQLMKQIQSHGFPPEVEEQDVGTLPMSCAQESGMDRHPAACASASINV

SMILES	Ki [mM]
CC(C)(CN)CCN	> 10
CC(C)(CN)C(C)(CN)C(=O)O (stereo unspecified)	> 11
CC(CN)C(C)(CN)C(=O)O (stereo unspecified)	1.65
CC(C)(CN)C(CN)C(=O)O (stereo unspecified)	> 11
CC(CN)C(CN)C(=O)O (stereo unspecified)	0.72
NCCCCN [PUTRESCINE]	3.5

Other lines, results leading:

Ki [mM]	SMILES
> 10.5	CC(CN)C(C)(C)CN (stereo unspecified)
> 11	CC(C)(CN)C(C)(C)CN
> 11	CC(CN)(CCN)C(=O)O (stereo unspecified)
1.79	NCCC(CN)C(=O)O (stereo unspecified)
6.1	CC(CN)C(C)CN (stereo unspecified)
